Consider 28 molecules from US20250275959A1, “COMPOUNDS AND METHODS OF THEIR USE” (LEXICON PHARMACEUTICALS, INC., priority 2024, published 2025).

Where only a bound is given, the exact number is not on record here.

hACSL5, sequence (Q9ULC5 33-683): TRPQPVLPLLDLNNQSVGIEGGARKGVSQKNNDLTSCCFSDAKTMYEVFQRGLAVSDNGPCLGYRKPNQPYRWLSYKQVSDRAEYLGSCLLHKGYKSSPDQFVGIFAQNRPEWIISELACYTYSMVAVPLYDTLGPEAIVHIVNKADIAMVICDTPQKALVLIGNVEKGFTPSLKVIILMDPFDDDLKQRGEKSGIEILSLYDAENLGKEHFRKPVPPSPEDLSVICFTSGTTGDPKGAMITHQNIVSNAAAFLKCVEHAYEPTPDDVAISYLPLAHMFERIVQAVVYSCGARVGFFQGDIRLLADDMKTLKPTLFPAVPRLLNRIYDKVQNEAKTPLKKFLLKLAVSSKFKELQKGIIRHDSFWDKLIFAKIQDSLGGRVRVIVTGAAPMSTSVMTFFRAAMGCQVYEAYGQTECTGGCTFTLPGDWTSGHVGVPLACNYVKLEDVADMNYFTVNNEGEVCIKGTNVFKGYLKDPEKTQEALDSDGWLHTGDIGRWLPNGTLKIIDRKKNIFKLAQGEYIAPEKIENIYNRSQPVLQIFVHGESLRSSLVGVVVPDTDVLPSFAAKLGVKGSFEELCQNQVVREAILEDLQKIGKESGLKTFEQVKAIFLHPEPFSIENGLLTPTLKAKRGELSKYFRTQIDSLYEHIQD

This test addresses hACSL5 (Homo sapiens (Human), UniProt Q9ULC5). Nature of the test: Human ACSL5 coupled enzyme Amplex Red assay. It is filed as biochemical. Conditions: read-out: hACSL5 IC50. On the procedure:
Human ACSL5 (33-683) was cloned with a C-terminal 6 His tag and expressed in insect cells (sf9) as per standard insect cell expression protocols. Human ACSL5 was enriched by affinity nickel affinity chromatography followed by Superdex S200 gel filtration column equilibrated in 20 mM HEPES pH 7.8, 500 mM NaCl, 1 mM TCEP, 5% glycerol, 0.1% Triton X^100.
Inhibition of ACSL5 enzyme activity was monitored with a coupled enzyme Amplex Red assay.
The assay is carried out in 384-well microtiterplates. In a total volume of […], compounds are preincubated with 20 nM ACSL5, in a buffer containing 150 mM MOPS-NaOH, 12 mM MgCl2, 0.03% (v/v) Triton X-100, 2.79 U mL-1 Peroxidase and 24 U mL-1 Acyl-CoA Oxidase (pH 7.6). The reaction is started by the addition of substrate and co factors (25 μM oleate, 30 μM CoA, 1 mM ATP and 50 μM Amplex Red) and the fluorescence detected after 10 minutes at 25° C. with a fluorescence reader (BMG-Fluostar; BMG-Technologies) using an excitation wavelength of 535 nm and an emission wavelength of 590 nm.
Concentration-response titration points for each compound tested were filled to the Hill equation yielding concentrations of half maximal inhibition […] and maximal inhibition values.
In the case of `CC(Oc1ccc(C(=O)NS(=O)(=O)N2CCN(C)CC2)c(Cl)c1Cl)c1cccc(Oc2ccccc2)c1` (racemic) [rac-(R)-2,3-dichloro-N-((4-methylpiperazin-1-yl)sulfonyl)-4-(1-(3-phenoxyphenyl)ethoxy)benzamide], the IC50 was less than 0.1 µM.
The figure for `CC(Oc1ccc(C(=O)NS(=O)(=O)CCN)c(Cl)c1Cl)c1cccc(Oc2ccccc2)c1` (racemic) [rac-(R)-N-((2-aminoethyl)sulfonyl)-2,3-dichloro-4-(1-(3-phenoxyphenyl)ethoxy)benzamide] is more than 0.5 µM; for `CC(Oc1ccc(C(=O)NS(=O)(=O)CCN)cc1C(F)(F)F)c1cccc(Oc2ccccc2)c1` (racemic) [rac-(R)-N-((2-aminoethyl)sulfonyl)-4-(1-(3-phenoxyphenyl)ethoxy)-3-(trifluoromethyl)benzamide] it is 0.1 to 0.5 µM.
The figure for `CC(Oc1ccc(C(=O)NS(=O)(=O)c2ccc(CN)cc2)c(Cl)c1Cl)c1cccc(Oc2ccccc2)c1` (racemic) [rac-(R)-N-((4-(aminomethyl)phenyl)sulfonyl)-2,3-dichloro-4-(1-(3-phenoxyphenyl)ethoxy)benzamide] is less than 0.1 µM; for `Cc1cc(C(=O)NS(=O)(=O)c2ccc(CN)cc2)ccc1OC(C)c1cccc(Oc2ccccc2)c1` (racemic) [rac-(R)-N-((4-(aminomethyl)phenyl)sulfonyl)-3-methyl-4-(1-(3-phenoxyphenyl)ethoxy)benzamide] it is less than 0.1 µM.
The figure for `CC[C@@H](Oc1ccc(C(=O)NS(=O)(=O)N2CCC(OC3CCN(C)CC3)CC2)c(F)c1F)c1cc(OC2CC(OC)C2)ccn1` (stereo partly drawn) [2,3-difluoro-4-((R)-1-(4-((1R,3R)-3-methoxycyclobutoxy)pyridin-2-yl)propoxy)-N-((4-((1-methylpiperidin-4-yl)oxy)piperidin-1-yl)sulfonyl)benzamide] is more than 0.5 µM.
Consider `CC[C@@H](Oc1ccc(C(=O)NS(=O)(=O)N2CCN(C)CC2)c(F)c1F)c1cc(OC2CC(OC)C2)ccn1` (stereo partly drawn) [2,3-difluoro-4-((R)-1-(4-((1R,3R)-3-methoxycyclobutoxy)pyridin-2-yl)propoxy)-N-((4-methylpiperazin-1-yl)sulfonyl)benzamide], for which the IC50 was more than 0.5 µM.
The figure for `CC[C@@H](Oc1ccc(C(=O)NS(=O)(=O)c2ccc(O[C@@H]3CCCN(C)C3)cc2)c(F)c1F)c1ccc(Oc2ccccn2)cn1` [2,3-difluoro-N-((4-(((R)-1-methylpiperidin-3-yl)oxy)phenyl)sulfonyl)-4-((R)-1-(5-(pyridin-2-yloxy)pyridin-2-yl)propoxy)benzamide] is less than 0.1 µM; for `CC[C@@H](Oc1ccc(C(=O)NS(=O)(=O)c2ccc(O[C@H]3CCCN(C)C3)cc2)c(F)c1F)c1ccc(Oc2ccccn2)cn1` [2,3-difluoro-N-((4-(((S)-1-methylpiperidin-3-yl)oxy)phenyl)sulfonyl)-4-((R)-1-(5-(pyridin-2-yloxy)pyridin-2-yl)propoxy)benzamide] it is less than 0.1 µM; for `CNCc1ccc(S(=O)(=O)NC(=O)c2ccc(OCc3cccc(Oc4ccccc4)c3)c(F)c2F)cc1` [2,3-difluoro-N-((4-((methylamino)methyl)phenyl)sulfonyl)-4-((3-phenoxybenzyl)oxy)benzamide] it is less than 0.1 µM.
The figure for `CC[C@@H](Oc1ccc(C(=O)NS(=O)(=O)N2CC3CC(C2)N3C)c(F)c1F)c1ccc(Oc2ccccn2)cn1` [2,3-difluoro-N-((6-methyl-3,6-diazabicyclo[3.1.1]heptan-3-yl)sulfonyl)-4-((R)-1-(5-(pyridin-2-yloxy)pyridin-2-yl)propoxy)benzamide] is less than 0.1 µM.
The figure for `CC[C@@H](Oc1ccc(C(=O)NS(=O)(=O)N2CC3CCC(C2)N3C)c(F)c1F)c1ccc(Oc2ccccn2)cn1` [2,3-difluoro-N-((8-methyl-3,8-diazabicyclo[3.2.1]octan-3-yl)sulfonyl)-4-((R)-1-(5-(pyridin-2-yloxy)pyridin-2-yl)propoxy)benzamide] is less than 0.1 µM.
Turning to `CCOc1ccc(C(C)Oc2ccc(C(=O)NS(=O)(=O)N3CCN(C)CC3)c(F)c2F)nc1` (stereo not shown) [4-(1-(5-ethoxypyridin-2-yl)ethoxy)-2,3-difluoro-N-((4-methylpiperazin-1-yl)sulfonyl)benzamide], the IC50 is more than 0.5 µM.
The figure for `CCOc1ccc(C(C)Oc2ccc(C(=O)NS(=O)(=O)C3CCNCC3)c(F)c2F)nc1` (stereo not shown) [4-(1-(5-ethoxypyridin-2-yl)ethoxy)-2,3-difluoro-N-(piperidin-4-ylsulfonyl)benzamide] is more than 0.5 µM; for `CCOc1ccc(C(CC)Oc2ccc(C(=O)NS(=O)(=O)CCCN3CCOCC3)cc2C(F)(F)F)nc1` (stereo not shown) [4-(1-(5-ethoxypyridin-2-yl)propoxy)-N-((3-morpholinopropyl)sulfonyl)-3-(trifluoromethyl)benzamide] it is 0.1 to 0.5 µM; for `CCOc1ccc(C(CC)Oc2ccc(C(=O)NS(=O)(=O)c3ccc(OCCNC)cc3)cc2C(F)(F)F)nc1` (stereo not shown) [4-(1-(5-ethoxypyridin-2-yl)propoxy)-N-((4-(2-(methylamino)ethoxy)phenyl)sulfonyl)-3-(trifluoromethyl)benzamide] it is less than 0.1 µM.
The figure for `CC[C@@H](Oc1ccc(C(=O)NS(=O)(=O)c2ccc(O[C@@H]3CCCN(C)C3)cc2)c(F)c1F)c1ccc(OCC2CC2)cn1` [4-((R)-1-(5-(cyclopropylmethoxy)pyridin-2-yl)propoxy)-2,3-difluoro-N-((4-(((R)-1-methylpiperidin-3-yl)oxy)phenyl)sulfonyl)benzamide] is 0.1 to 0.5 µM; for `CC[C@@H](Oc1ccc(C(=O)NS(=O)(=O)c2ccc(O[C@H]3CCCN(C)C3)cc2)c(F)c1F)c1ccc(OCC2CC2)cn1` [4-((R)-1-(5-(cyclopropylmethoxy)pyridin-2-yl)propoxy)-2,3-difluoro-N-((4-(((S)-1-methylpiperidin-3-yl)oxy)phenyl)sulfonyl)benzamide] it is less than 0.1 µM.
The figure for `CC[C@@H](Oc1ccc(C(=O)NS(=O)(=O)c2ccc(OC3CCN(C)CC3)cc2)c(F)c1F)c1ccc(OCCOC)cn1` [(R)-2,3-difluoro-4-(1-(5-(2-methoxyethoxy)pyridin-2-yl)propoxy)-N-((4-((1-methylpiperidin-4-yl)oxy)phenyl)sulfonyl)benzamide] is more than 0.5 µM; for `CC[C@@H](Oc1ccc(C(=O)NS(=O)(=O)N2CCC(OC3CCN(C)CC3)CC2)c(F)c1F)c1ccc(OCCOC)cn1` [(R)-2,3-difluoro-4-(1-(5-(2-methoxyethoxy)pyridin-2-yl)propoxy)-N-((4-((1-methylpiperidin-4-yl)oxy)piperidin-1-yl)sulfonyl)benzamide] it is more than 0.5 µM; for `CC[C@@H](Oc1ccc(C(=O)NS(=O)(=O)N2CC(OC3CCN(C)CC3)C2)c(F)c1F)c1ccc(Oc2ccccn2)cn1` [(R)-2,3-difluoro-N-((3-((1-methylpiperidin-4-yl)oxy)azetidin-1-yl)sulfonyl)-4-(1-(5-(pyridin-2-yloxy)pyridin-2-yl)propoxy)benzamide] it is 0.1 to 0.5 µM.
For `CC[C@@H](Oc1ccc(C(=O)NS(=O)(=O)N2CCN(CCCF)CC2)c(F)c1F)c1ccc(Oc2ccccn2)cn1` [(R)-2,3-difluoro-N-((4-(3-fluoropropyl)piperazin-1-yl)sulfonyl)-4-(1-(5-(pyridin-2-yloxy)pyridin-2-yl)propoxy)benzamide], the IC50 is less than 0.1 µM.
The figure for `CC[C@@H](Oc1ccc(C(=O)NS(=O)(=O)N2CCC(OC3CN(C)C3)CC2)c(F)c1F)c1ccc(Oc2ccccn2)cn1` [(R)-2,3-difluoro-N-((4-((1-methylazetidin-3-yl)oxy)piperidin-1-yl)sulfonyl)-4-(1-(5-(pyridin-2-yloxy)pyridin-2-yl)propoxy)benzamide] is less than 0.1 µM.
The figure for `CC[C@@H](Oc1ccc(C(=O)NS(=O)(=O)N2CC3=C(CN(C)C3)C2)c(F)c1F)c1ccc(Oc2ccccn2)cn1` [(R)-2,3-difluoro-N-((5-methyl-3,4,5,6-tetrahydropyrrolo[3,4-c]pyrrol-2(1H)-yl)sulfonyl)-4-(1-(5-(pyridin-2-yloxy)pyridin-2-yl)propoxy)benzamide] is 0.1 to 0.5 µM.
The figure for `CC[C@@H](Oc1ccc(C(=O)NS(=O)(=O)N2CC3(CN(C)C3)C2)c(F)c1F)c1ccc(Oc2ccccn2)cn1` [(R)-2,3-difluoro-N-((6-methyl-2,6-diazaspiro[3.3]heptan-2-yl)sulfonyl)-4-(1-(5-(pyridin-2-yloxy)pyridin-2-yl)propoxy)benzamide] is 0.1 to 0.5 µM.
As to `CC[C@@H](Oc1ccc(C(=O)NS(=O)(=O)N2CC(OC3CCN(C)CC3)C2)c(F)c1F)c1ccc(OCC2CC2)cn1` [(R)-4-(1-(5-(cyclopropylmethoxy)pyridin-2-yl)propoxy)-2,3-difluoro-N-((3-((1-methylpiperidin-4-yl)oxy)azetidin-1-yl)sulfonyl)benzamide], the IC50 fell in the range of 0.1 to 0.5 µM.
The figure for `CC[C@@H](Oc1ccc(C(=O)NS(=O)(=O)c2ccc(OCCNC)cc2)c(F)c1F)c1ccc(OCC2CC2)cn1` [(R)-4-(1-(5-(cyclopropylmethoxy)pyridin-2-yl)propoxy)-2,3-difluoro-N-((4-(2-(methylamino)ethoxy)phenyl)sulfonyl)benzamide] is less than 0.1 µM; for `CC[C@@H](Oc1ccc(C(=O)NS(=O)(=O)N2CCC(OCCN3CCCC3)CC2)c(F)c1F)c1ccc(OCC2CC2)cn1` [(R)-4-(1-(5-(cyclopropylmethoxy)pyridin-2-yl)propoxy)-2,3-difluoro-N-((4-(2-(pyrrolidin-1-yl)ethoxy)piperidin-1-yl)sulfonyl)benzamide] it is 0.1 to 0.5 µM.
